Molecular target: Chymotrypsinogen A (Bos taurus) (UniProt P00766)
Experiment: Compound was evaluated for its inhibitory activity against bovine pancreatic alpha-chymotrypsin

IC50: 2.4 nM
SMILES: Cc1ccc(N2C(=O)N(c3ccc(C)cc3)C2=O)cc1 [1,3-Di-p-tolyl-[1,3]diazetidine-2,4-dione]

From BindingDB's records for doi:10.1016/s0960-894x(01)00264-5 (Shionogi, 2001)
